{"source": "paper PMC6715247", "about": "(PLoS Neglected Tropical Diseases, 2019)", "key": {"[1]": {"test_system": "E. histolytica trophozoite", "set-up": "method as in PMID 30087858", "settings": "ref [18], cited from earlier work; for Effect on trophozoite proliferation: 10 μM"}, "[2]": {"biological_target": "T1, rHsAPSK (recombinant APSK domain of HsPAPSS1) (Homo sapiens, UniProt O43252)", "T1 construct": "APSK domains of HsPAPSS1 (Ala^25—Pro^227) and -2 (Ser^15—Pro^217); His tag (pCold-I vector); made in house; host or cells: E. coli BL21(DE3)", "T1 sequence (O43252 25-227)": "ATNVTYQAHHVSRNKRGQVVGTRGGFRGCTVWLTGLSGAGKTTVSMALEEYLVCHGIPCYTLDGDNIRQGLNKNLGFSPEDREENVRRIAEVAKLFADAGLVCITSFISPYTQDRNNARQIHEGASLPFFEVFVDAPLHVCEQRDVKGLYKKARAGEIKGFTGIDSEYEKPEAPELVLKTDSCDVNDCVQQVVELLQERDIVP", "assay": "96-well plate-based in vitro APSK activity assay (coupling assay, NADH decrease)", "assay_type": "biochemical", "settings": "10 μM compound, 1% DMSO", "description": "(§1) A coupling assay to measure APSK activity was performed as described except a 96-well plate was used. Briefly, each well contained 100 μL reaction mixture, which consisted of 90 μL coupling solution and 10 μL of either compound solution (see below) or 10% DMSO. […] The coupling solution was 100 mM Tris/HCl (pH 8.0), 1 mM MgCl2, 1 mM KCl, 5 mM Mg2ATP, 1 mM NADH, 1 mM PEP, 1 U NP1, 3.5 U PK, 5.0 U LDH, and APSK (≤3 μL). […] As controls, in place of purified APSK solution (rEhAPSK or rHsAPSK), 3 μL of a blank [50 mM Tris/HCl buffer (pH 8.0)], a solvent (elution buffer), a mock (rEhSF2), or denatured APSK suspensions obtained by heat-treatment, were added to the coupling solution. The activity of each sample was calculated after removing the baseline value of the blank control.\n(§2) For the inhibition assay, 2 μL of each stock solution, which were distributed in a 96-well plate, were transferred to a new plate to make a replicate. After adding 18 μL deionized water to each well and mixing, 10 μL of each diluted solution (100 μM compound solution) was again transferred into a new 96-well plate to make a replicate. Then 90 μL of the coupling solution prepared above was dispensed into each well containing the previously added 10 μL of 100 μM compound solution. As a solvent control, 10% DMSO solution (vol/vol-deionized water) was used in place of compound solution. The final concentrations of each compound and DMSO in a well were 10 μM and 1% (vol/vol), respectively. The assays were performed independently three times, and data are shown as the mean with SD.\n(§3) In all assays, prepared mixtures in a plate were mixed on a vibrating table equipped with either an EnVision or ARVO plate reader (PerkinElmer) before starting the reaction."}, "[3]": {"test_system": "E. invadens cyst formation", "assay": "E. invadens cyst formation (encystation) assay (flow cytometry)", "assay_type": "cell-based, Entamoeba invadens", "settings": "for Number of cysts formed at 72 h: compound added at 48 h post-induction (48–72 h)", "description": "(§4) E. histolytica trophozoite proliferation and E. invadens cyst formation assays were performed essentially as described in [18] except that in addition to 0–72 and 48–72 h cyst formation assays, 0–96 and 0–120 h, and 48–96 and 48–120 h assays were also performed."}, "[4]": {"test_system": "sulfolipids synthesized in E. histolytica trophozoites", "assay": "Metabolic labeling by [35S]-labeled sulfate, sulfolipid synthesis", "assay_type": "cell-based, Entamoeba histolytica", "settings": "6 h treatment; A-D-11, A-H-11 6.25-100 μM, E-H-05 0.5-8 μM", "description": "Metabolic labeling of E. histolytica trophozoites by [^35S]-labeled sulfate was performed essentially as described previously with slight modification. […] Each 10 mM stock solution (in DMSO) of the three commercially sourced compounds was serially diluted by 2-fold decrements with DMSO. The resulting diluted solutions were then added to 0.75 ml cell suspension in BI-S-33 medium at 1/100 (vol/vol). […] Note that DMSO was used as a solvent control at 1%, which was the DMSO concentration in all samples analyzed. [^35S]-labeled sulfate (45 μCi) was added 4 h after the start of treatments and labeled cells were harvested at 6 h. […] Each spot on the TLC plates was quantified using a Fuji imaging analyzer and Multi Gauge 2.2 software (FLA-7000; Fujifilm, Japan). The total cell protein was estimated using a Pierce BCA protein assay kit (Thermo Scientific, Rockford, IL, USA)."}, "[5]": {"test_system": "E. histolytica trophozoites", "assay": "Morphological analysis by phase contrast microscopy", "assay_type": "cell-based, Entamoeba histolytica", "settings": "6 h treatment", "description": "Cell morphology was then observed by phase contrast microscopy using a Primovert microscope (Carl Zeiss, Germany) with a COMS camera (E3CMOS12000KPA, ToupTek, China). […] Cell images were captured using ToupView software (ToupTek)."}, "[6]": {"assay": "WST-1-based cytotoxicity assay", "settings": "human, human foreskin fibroblast (HFF) cells", "description": "(§5) Human foreskin fibroblast (HFF) cells (purchased from ATCC) were routinely maintained in DMEM supplemented with 10% fetal bovine serum, 100 units/ml penicillin, […] and 1% GlutaMAX™-I (Thermo Fisher Scientific, Waltham, MA). A WST-1-based cytotoxicity assay was performed as previously described. In detail, HFF cells were plated at 1.0×10^4 cells/100 μL medium in each well of a 96-well culture plate, and incubated overnight at 37°C in a 5% CO2 atmosphere to allow cells to adhere to the wells. […] Numbers of viable cells were then assessed using the Premix WST-1 Cell Proliferation Assay System (Takara). […] DMSO was added at 1% as a negative control whereas ionomycin was added at 30 μM as a positive control. As a blank, the above culture medium was used in place of the solutions added."}, "[7]": {"test_system": "Human foreskin fibroblast (HFF) cells", "assay": "WST-1-based cytotoxicity assay", "settings": "for Number of viable HFF cells relative to 1% DMSO control (set as 100%): 10 μM", "description": "as §5"}, "[8]": {"test_system": "E. invadens cyst formation", "set-up": "method as in PMID 30087858", "settings": "ref [18], cited from earlier work; for Effect on cyst formation: 10 μM"}, "rEhAPSK": {"biological_target": "rEhAPSK (Entamoeba histolytica, UniProt C4LUW9)", "sequence (C4LUW9 entry or part of it)": "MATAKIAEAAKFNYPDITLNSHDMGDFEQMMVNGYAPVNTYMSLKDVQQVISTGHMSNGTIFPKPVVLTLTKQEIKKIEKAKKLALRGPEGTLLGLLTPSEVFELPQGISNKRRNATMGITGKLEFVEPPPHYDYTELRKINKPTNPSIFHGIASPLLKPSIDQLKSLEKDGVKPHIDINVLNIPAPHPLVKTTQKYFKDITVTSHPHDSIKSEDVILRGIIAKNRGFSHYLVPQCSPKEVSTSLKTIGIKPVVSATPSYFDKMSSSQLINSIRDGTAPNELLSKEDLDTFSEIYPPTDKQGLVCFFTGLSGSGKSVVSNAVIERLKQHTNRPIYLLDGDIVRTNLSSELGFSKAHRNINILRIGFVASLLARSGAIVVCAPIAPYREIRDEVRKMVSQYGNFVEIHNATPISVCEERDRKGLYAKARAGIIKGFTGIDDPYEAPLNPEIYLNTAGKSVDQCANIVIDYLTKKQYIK", "assay": "96-well plate-based in vitro APSK activity assay (coupling assay, NADH decrease)", "assay_type": "biochemical", "settings": "for Inhibition of rEhAPSK activity: 10 μM compound, 1% DMSO", "description": "as §1, §2\nOne millimolar stock solutions used were either thawed in a replicate (96-well plate) prepared in [18] […] Subsequently, 3.4 μL of the 1 mM and each diluted stock solution were dispensed into wells of a 96-well culture plate, containing 30.6 μL deionized water and mixed well by pipetting. Ten microliters of all resulting solutions were then dispensed into wells of a 96-well plate to make triplicates and then used as described for the above inhibition assay. 10% DMSO solution was used as an inhibitor-free control. Note that the final DMSO concentration in any well was 1% (vol/vol).\nas §3"}, "[9]": {"test_system": "E. histolytica trophozoite", "assay": "E. histolytica trophozoite proliferation assay (flow cytometry)", "assay_type": "cell-based", "settings": "Entamoeba histolytica; average ± SD, three independent experiments; read-out: Trophozoite proliferation IC50", "description": "as §4"}, "recombinant EhTrxR": {"test_system": "recombinant EhTrxR", "set-up": "method as in PMID 22610278, PMID 26876147", "settings": "ref [19], [59]; cited from earlier work"}}, "note": "Entries after “also recorded” stand apart in the source; their conditions may differ. Like-named read-outs stand apart in the source and are kept apart here."}
{"compound": "O=C(Nc1nc(-c2ccccn2)cs1)c1cncn1-c1ccccc1", "note": "[A-H-11, 3-phenyl-N-[4-(2-pyridyl)thiazol-2-yl]-imidazole-4-carboxamide]", "values": [{"measurement": "Effect on trophozoite proliferation", "setting": "[1]", "value": "negative effects"}, {"measurement": "Inhibition of rHsAPSK activity", "setting": "[2]", "value": "none showed any inhibitory activity against HsAPSK"}, {"measurement": "IC50", "setting": "[3]; Entamoeba invadens, 0–72 h, average ± SD, three independent experiments, read-out: Cyst formation IC50", "value": "2.35 ± 0.132", "unit": "µM"}, {"measurement": "Number of cysts formed at 72 h", "setting": "[3]", "value": "neither A-D-11 nor A-H-11 affected the number of cysts formed at 72 h"}, {"measurement": "Amount of sulfolipids synthesized", "setting": "[4]", "value": "dose-dependently reduced the amount of sulfolipids synthesized"}, {"measurement": "Concentration range that produced trophozoite morphology similar to DMSO control", "setting": "[5]", "value": "6.25–100 μM"}, {"measurement": "IC50 at 48 h", "setting": "[6]", "value": "> 100", "unit": "µM"}, {"measurement": "Number of viable HFF cells relative to 1% DMSO control (set as 100%)", "setting": "[7]; 48 h", "value": "did not affect numbers of viable cells; also recorded: did not influence numbers of viable HFF cells"}, {"measurement": "Number of viable HFF cells relative to DMSO control", "setting": "[7]; 100 μM, 48 h", "value": "did not influence numbers of viable HFF cells"}, {"measurement": "Effect on cyst formation", "setting": "[8]", "value": "negative effects"}, {"measurement": "Inhibition of rEhAPSK activity", "setting": "rEhAPSK", "value": "reproducibly inhibited rEhAPSK activity"}, {"measurement": "IC50", "setting": "rEhAPSK; rEhAPSK, average ± SD, more than three independent experiments, read-out: APSK activity IC50", "value": "6.75 ± 1.35", "unit": "µM"}, {"measurement": "IC50", "setting": "[9]", "value": "4 ± 1.05", "unit": "µM"}]}
{"compound": "auranofin [E-H-05, reference compound]", "values": [{"measurement": "Effect on trophozoite proliferation", "setting": "[1]", "value": "negative effects"}, {"measurement": "IC50", "setting": "[1]; average ± SD, read-out: Trophozoite proliferation IC50", "value": "0.65 ± 0.18", "unit": "µM"}, {"measurement": "Inhibition of rHsAPSK activity", "setting": "[2]", "value": "none showed any inhibitory activity against HsAPSK"}, {"measurement": "Number of cysts formed at 72 h", "setting": "[3]", "value": "did not affected the number of cyst formed at 72 h"}, {"measurement": "Amount of sulfolipids synthesized", "setting": "[4]", "value": "dose-dependently reduced the amount of sulfolipids synthesized"}, {"measurement": "Number of viable HFF cells relative to 1% DMSO control (set as 100%)", "setting": "[7]; 48 h", "value": "< 10", "unit": "%"}, {"measurement": "IC50", "setting": "[7]; read-out: Cytotoxicity (HFF) IC50, 48 h exposure, WST-1", "value": "4 ± 1.4", "unit": "µM"}, {"measurement": "Effect on cyst formation", "setting": "[8]", "value": "negative effects"}, {"measurement": "IC50", "setting": "[8]; average ± SD", "value": "1.73 ± 0.7", "unit": "µM"}, {"measurement": "IC50", "setting": "recombinant EhTrxR", "value": 0.4, "unit": "µM"}, {"measurement": "Inhibition of rEhAPSK activity", "setting": "rEhAPSK", "value": "reproducibly inhibited rEhAPSK activity"}]}
